Data from patent EP4592286A1, “MACROCYCLIC NITROGEN-CONTAINING CROWN ETHER COMPOUND AND USE THEREOF AS PROTEIN KINASE INHIBITOR” (Artivila Biopharma, priority 2022, dated 2024).
In brackets after ≈: the same amount, converted by molar mass.

Tests used:
[1] = biological target: EGFR (T790M) (Homo sapiens, UniProt P00533, T790M); assay: experiment of inhibiting kinase activity, EGFR (T790M); assay type: biochemical; settings: at 10 nM; read-out: inhibition rate EGFR(T790M)
Experimental: (§1) The inhibition rates of tested compounds on JAK1, JAK2, JAK3, TYK2, CDK7, CDK9, EGFR (T790M) and LRRK2 kinases were measured. The test concentrations of the compounds were 10 nM and 100 nM, and the detection was performed by replicate wells. Alternatively, compounds were 3-fold serial diluted from 10 µM for 10 concentrations in replicate wells.

[2] = biological target: Wild-type EGFR kinase protein (Homo sapiens, UniProt P00533); assay: experiment of inhibiting EGFR kinase activity (TR-FRET method); assay type: biochemical
Experimental: The inhibitory effect of the compounds on EGFR kinase activity was measured by TR-FRET method. The diluted solutions of the compounds were transfered to a 384-well plate (784075, Greiner), the plate was sealed and centrifuged at a speed of 1000 g for 1 minute. Wild-type EGFR kinase protein at 2-fold final concentration was prepared in 1×kinase buffer, 5 µL of wild-type EGFR at 2-fold final concentration was added to 384-well plate, the well plate was centrifuged at 1000 g for 30 seconds, and left at room temperature for 10 minutes. A mixture of 2-fold TK-substrate-biotin (2 µM) and ATP was prepared in 1×kinase buffer, and 5 µL of the mixture of 2×TK-substrate-biotin (2 µM) and ATP was added to start the reaction. The well plate was centrifuged at 1000 g for 30 seconds, sealed and left at room temperature for 40 minutes. […] The fluorescence signal values at 615 nm (Cryptate) and 665 nm (XL665) were detected by using Envision 2104 microplate reader. […] The IC50 was calculated with GraphPad 8.0 and the dose-reponse curve of the compound was plotted as follows: y=Bottom+(Top-Bottom)/(1+10^((logic50-x)×hillslope)), where x was logarithm of inhibitor concentration; and y was % inhibition rate.

[3] = biological target: T1, JAK3 (Homo sapiens, UniProt P52333); assay: experiment of inhibiting kinase activity (Caliper mobility shift assay), JAK3; assay type: biochemical; settings: for IC50: kinase activity assay, Table 3
T1 sequence (P52333 1-1124): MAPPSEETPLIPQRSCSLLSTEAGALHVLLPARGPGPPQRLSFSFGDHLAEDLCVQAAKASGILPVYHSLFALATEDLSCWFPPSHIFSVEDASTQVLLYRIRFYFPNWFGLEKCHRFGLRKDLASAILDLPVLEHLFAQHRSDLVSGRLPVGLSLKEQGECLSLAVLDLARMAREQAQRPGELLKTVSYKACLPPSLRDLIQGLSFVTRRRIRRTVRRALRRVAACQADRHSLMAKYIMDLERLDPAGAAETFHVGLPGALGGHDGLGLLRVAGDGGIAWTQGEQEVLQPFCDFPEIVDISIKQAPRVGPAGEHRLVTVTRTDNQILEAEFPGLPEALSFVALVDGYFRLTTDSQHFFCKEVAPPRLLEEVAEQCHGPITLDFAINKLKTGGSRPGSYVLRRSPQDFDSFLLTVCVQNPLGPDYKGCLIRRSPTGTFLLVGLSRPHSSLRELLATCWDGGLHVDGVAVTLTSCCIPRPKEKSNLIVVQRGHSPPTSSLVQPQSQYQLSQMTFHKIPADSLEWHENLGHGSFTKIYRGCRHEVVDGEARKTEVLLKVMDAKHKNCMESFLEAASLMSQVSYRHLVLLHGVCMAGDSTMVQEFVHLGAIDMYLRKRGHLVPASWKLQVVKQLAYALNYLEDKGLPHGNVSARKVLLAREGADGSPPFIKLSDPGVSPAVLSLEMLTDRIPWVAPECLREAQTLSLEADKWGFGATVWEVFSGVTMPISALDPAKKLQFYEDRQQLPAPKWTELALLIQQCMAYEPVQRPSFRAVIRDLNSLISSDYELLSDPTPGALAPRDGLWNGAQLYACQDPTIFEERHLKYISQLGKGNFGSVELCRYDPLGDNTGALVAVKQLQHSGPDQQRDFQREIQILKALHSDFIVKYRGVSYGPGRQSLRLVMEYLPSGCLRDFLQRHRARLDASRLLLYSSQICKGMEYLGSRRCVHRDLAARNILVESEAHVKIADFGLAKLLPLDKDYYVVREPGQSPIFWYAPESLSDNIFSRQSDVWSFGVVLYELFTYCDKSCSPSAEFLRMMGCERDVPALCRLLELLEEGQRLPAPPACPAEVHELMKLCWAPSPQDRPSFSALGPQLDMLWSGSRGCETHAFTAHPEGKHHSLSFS
In short: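 Replicate wells; top concentration 10 µM, 3-fold steps, 10 points (or 10 nM/100 nM single doses). Enzyme preincubated 10 min RT with compound; ATP/substrate start; stop solution; Caliper conversion read. IC50 by Hill-slope curve fit.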

[4] = biological target: TYK2 (Homo sapiens, UniProt P29597); assay: experiment of inhibiting kinase activity, TYK2; assay type: biochemical; settings: read-out: inhibition rate TYK2; for inhibition at 0.01 µM: at 10 nM; for inhibition at 0.1 µM: at 100 nM
Experimental: as §1

[5] = biological target: T2, JAK2 (Mus musculus, UniProt Q62120); assay: JAKs cell activity test: JAK2_pSTAT5 in IL-3-induced BAF3 cells; assay type: cell-based; settings: pSTAT5, IL-3-induced BAF3 cells
T2 construct: endogenous in cells; host or cells: BAF3
Experimental: (§2) THP1 cells were collected by centrifugation, resuspended with 1×HBSS, counted and diluted to a certain cell density. They were inoculated in a 384-well plate and cultured in a saturated humidity incubator with 37 °C and 5% CO2. The compound (DMSO final volume of 0.3%) was added to THP1 cells (10 doses in duplicates) and cultured in a saturated humidity incubator with 37 °C and 5% CO2. hIL-4 was added to stimulate cells and cultured in a saturated humidity incubator with 37 °C and 5% CO2. The lysis solution was added and incubated at room temperature. According to the instructions of AlphaLISA SureFire Ultra p-STAT6 detection kit, the lysis solution was transferred to pSTAT6 detection system, and the ALPHA signal was read by PE Envision microplate reader. The inhibition rate Inh%=((DMSO-sample)/(DMSO-background))×100 was calculated. IC50 was obtained by fitting with GraphPad Prism non-linear regression equation, and y=Bottom+(Top-Bottom)/(1+10^((LogIC50-x)×hillslope)), where x was the concentration of the compound and y was the inhibition rate.
(§3) JAK2_pSTAT5 was tesed in IL-3-induced BAF3 cells according to the above steps, and JAK3_pSTAT5 was tested in IL-2-induced CTLL-2 cells (without serum stimulation) according to the above steps.

[6] = measurement of the solubility of compounds in water and diluted hydrochloric acid; assay type: physicochemical; settings: thermodynamic from solid
Experimental: Example 117: measurement of the solubility of compounds in water and diluted hydrochloric acid
The compounds were dissolved in acetonitrile (LCMS pure) and prepared into standard samples having the concentration gradient of 1000 µg/mL, 500 µg/mL, 250 µg/mL, 125 µg/mL, 62.5 µg/mL, and 31.25 µg/mL.
(§4) About 1.0 mg of the powder of the compound to be tested was weighed and added to 0.3 mL of ultrapure water (pH-6), the resulting mixture was shaked thoroughly at room temperature overnight and centrifuged, and the supernatant was taken and diluted 10 times with acetonitrile. The sample was analyzed after mixing evenly.
as §4, with “153.8 µL of 6 M HCl was pipetted, 20 mL of water was added, and mixed evenly to prepare diluted hydrochloric acid solution A (pH-1.5). About” for “About”, “diluted hydrochloric acid solution A,” for “ultrapure water (pH-6),”, “for 1 hour” for “overnight”
The standard sample and the sample to be tested were analyzed by Shimadzu LCMS-2020, where chromatographic column was Skim-psck GIST 5 µm C18 2.1*[…]; mobile phase A was water and mobile phase B was methanol; and flow rate was 0.3 mL/min. The gradient of B was as the following: 0 min: 10%; 0-1.0 min: 10%; 1.0-2.5 min: 95%; 3.0-4.0 min: 95%; 4.0-4.1 min: 10%; 4.1-6.0 min: 10%.
The relationship between the concentration and peak area of the standard sample was ploted into a standard curve, and the concentration of the sample to be tested was calibrated using this standard curve. Compound solubility = concentration of the sample to be tested × 10 [formula]

[7] = biological target: T3, JAK3 (Mus musculus, UniProt Q62137); assay: JAKs cell activity test: JAK3_pSTAT5 in IL-2-induced CTLL-2 cells; assay type: cell-based; settings: pSTAT5, IL-2-induced CTLL-2 cells
T3 construct: endogenous in cells; host or cells: CTLL-2
T3 sequence (Q62137 1-1100): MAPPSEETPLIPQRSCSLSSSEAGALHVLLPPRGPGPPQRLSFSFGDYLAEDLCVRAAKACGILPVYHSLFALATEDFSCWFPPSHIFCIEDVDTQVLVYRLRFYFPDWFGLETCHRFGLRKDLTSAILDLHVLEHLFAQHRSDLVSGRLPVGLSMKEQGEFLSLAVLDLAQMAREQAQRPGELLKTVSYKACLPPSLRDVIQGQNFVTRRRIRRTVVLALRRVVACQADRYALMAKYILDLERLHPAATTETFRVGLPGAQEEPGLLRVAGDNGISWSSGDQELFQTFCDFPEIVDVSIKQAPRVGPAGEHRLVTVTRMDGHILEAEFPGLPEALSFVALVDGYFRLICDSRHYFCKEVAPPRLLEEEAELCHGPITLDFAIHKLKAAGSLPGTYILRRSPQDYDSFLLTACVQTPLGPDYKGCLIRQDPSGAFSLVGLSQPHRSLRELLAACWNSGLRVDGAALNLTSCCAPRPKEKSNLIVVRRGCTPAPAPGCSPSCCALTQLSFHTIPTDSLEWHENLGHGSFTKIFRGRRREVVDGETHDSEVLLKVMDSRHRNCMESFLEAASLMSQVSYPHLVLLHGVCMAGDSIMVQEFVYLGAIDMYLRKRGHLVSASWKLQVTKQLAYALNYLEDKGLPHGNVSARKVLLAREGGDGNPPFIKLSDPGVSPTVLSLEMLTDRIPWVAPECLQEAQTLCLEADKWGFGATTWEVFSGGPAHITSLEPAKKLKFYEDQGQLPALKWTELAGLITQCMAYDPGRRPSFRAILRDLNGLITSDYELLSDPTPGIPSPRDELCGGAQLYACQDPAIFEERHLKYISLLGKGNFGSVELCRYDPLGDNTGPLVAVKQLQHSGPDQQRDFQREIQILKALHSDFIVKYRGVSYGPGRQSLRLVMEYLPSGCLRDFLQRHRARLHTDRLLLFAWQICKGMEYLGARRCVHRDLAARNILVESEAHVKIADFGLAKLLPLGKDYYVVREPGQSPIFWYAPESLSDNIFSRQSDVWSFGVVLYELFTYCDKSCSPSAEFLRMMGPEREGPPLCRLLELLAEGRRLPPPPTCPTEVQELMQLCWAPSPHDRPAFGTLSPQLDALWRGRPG
Experimental: as §2, §3

Chain of TYK2 (P29597 whole entry): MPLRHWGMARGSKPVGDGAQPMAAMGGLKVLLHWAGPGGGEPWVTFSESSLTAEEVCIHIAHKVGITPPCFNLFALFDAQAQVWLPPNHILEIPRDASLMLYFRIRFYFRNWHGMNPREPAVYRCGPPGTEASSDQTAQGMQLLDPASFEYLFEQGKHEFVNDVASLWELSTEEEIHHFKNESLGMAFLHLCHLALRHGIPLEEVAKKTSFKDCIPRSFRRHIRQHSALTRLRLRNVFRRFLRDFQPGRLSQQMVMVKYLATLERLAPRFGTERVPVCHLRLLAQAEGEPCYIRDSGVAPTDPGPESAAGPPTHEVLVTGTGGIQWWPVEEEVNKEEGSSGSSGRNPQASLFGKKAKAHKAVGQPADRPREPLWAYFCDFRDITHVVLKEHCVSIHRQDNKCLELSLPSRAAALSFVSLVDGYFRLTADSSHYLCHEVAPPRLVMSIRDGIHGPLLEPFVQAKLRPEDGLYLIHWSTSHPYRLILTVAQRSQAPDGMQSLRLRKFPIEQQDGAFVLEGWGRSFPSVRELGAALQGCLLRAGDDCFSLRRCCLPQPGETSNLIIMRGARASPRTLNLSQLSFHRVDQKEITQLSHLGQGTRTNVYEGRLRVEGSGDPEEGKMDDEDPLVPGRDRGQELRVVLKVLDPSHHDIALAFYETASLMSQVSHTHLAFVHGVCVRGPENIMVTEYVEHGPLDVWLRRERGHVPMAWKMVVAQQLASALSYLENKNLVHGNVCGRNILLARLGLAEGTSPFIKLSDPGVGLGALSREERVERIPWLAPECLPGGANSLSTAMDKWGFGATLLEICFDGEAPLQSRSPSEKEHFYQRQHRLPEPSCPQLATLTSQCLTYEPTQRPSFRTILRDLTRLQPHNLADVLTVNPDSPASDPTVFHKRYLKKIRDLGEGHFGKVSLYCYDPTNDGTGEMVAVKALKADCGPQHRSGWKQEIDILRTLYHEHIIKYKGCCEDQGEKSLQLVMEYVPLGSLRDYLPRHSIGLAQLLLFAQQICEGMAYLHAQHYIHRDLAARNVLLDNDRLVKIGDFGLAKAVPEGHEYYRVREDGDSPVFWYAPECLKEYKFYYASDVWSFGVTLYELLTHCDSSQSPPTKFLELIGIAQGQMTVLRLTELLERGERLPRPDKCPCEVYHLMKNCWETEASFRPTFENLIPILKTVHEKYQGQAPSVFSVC
Chain of EGFR (T790M) (P00533 25-1210 T790M): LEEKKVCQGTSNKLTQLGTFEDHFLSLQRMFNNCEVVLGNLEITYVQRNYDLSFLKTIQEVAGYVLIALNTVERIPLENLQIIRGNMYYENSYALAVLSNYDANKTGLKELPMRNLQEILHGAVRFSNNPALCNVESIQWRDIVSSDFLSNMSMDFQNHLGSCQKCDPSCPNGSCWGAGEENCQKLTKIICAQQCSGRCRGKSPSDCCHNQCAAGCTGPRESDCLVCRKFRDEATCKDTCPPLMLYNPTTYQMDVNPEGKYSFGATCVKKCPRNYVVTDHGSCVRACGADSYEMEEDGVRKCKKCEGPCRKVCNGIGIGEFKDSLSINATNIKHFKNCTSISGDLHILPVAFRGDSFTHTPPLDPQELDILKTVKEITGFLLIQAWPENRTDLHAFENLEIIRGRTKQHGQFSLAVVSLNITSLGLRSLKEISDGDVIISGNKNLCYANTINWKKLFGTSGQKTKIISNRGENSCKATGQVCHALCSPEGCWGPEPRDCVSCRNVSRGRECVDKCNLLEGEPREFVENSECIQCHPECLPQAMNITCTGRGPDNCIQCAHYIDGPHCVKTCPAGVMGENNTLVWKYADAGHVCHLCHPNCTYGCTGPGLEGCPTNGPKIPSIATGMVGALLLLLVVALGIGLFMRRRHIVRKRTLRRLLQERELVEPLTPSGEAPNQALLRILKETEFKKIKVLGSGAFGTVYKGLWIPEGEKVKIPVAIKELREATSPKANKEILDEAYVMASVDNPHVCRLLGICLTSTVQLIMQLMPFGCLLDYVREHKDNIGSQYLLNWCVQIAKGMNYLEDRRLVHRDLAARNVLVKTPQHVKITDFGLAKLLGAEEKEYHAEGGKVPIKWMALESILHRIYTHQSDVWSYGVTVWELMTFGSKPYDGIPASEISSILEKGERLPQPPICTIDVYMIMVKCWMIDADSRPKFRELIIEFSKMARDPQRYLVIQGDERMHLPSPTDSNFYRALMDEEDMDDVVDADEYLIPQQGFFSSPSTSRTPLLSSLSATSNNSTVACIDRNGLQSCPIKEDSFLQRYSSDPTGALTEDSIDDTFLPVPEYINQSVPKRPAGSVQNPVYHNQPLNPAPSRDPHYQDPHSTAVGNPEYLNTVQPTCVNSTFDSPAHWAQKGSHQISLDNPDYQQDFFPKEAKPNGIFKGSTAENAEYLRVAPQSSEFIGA
Chain of Wild-type EGFR kinase protein (P00533 25-1210): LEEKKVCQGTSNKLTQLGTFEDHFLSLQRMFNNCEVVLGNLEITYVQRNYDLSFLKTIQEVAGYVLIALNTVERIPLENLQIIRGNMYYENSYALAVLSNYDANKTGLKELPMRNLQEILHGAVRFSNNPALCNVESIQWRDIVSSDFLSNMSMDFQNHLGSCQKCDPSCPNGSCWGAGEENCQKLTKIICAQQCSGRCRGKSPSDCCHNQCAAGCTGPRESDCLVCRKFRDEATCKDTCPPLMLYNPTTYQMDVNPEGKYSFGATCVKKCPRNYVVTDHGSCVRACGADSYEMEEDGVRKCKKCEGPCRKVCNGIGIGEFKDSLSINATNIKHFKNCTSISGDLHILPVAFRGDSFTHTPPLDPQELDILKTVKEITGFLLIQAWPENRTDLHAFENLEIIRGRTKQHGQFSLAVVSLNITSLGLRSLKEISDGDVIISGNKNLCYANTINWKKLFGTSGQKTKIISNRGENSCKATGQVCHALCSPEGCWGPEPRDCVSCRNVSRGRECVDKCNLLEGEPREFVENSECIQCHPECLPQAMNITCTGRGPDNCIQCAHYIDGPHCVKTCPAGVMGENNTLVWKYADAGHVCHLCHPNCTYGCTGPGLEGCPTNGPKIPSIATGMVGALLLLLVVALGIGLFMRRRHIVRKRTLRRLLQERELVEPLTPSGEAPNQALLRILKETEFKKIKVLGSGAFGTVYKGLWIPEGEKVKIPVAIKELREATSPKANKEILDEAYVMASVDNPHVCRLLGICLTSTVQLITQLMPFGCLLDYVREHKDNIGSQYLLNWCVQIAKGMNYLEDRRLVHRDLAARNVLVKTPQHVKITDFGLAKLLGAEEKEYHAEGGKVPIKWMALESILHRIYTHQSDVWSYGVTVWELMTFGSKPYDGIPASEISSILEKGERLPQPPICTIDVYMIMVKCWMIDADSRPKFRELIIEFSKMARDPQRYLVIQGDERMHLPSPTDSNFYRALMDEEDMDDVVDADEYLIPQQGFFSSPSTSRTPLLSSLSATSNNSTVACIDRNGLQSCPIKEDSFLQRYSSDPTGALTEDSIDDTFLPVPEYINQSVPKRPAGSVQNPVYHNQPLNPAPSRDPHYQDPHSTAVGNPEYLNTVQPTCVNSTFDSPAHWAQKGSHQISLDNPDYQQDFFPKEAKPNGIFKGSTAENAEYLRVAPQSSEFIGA
T2 sequence (Q62120 whole entry): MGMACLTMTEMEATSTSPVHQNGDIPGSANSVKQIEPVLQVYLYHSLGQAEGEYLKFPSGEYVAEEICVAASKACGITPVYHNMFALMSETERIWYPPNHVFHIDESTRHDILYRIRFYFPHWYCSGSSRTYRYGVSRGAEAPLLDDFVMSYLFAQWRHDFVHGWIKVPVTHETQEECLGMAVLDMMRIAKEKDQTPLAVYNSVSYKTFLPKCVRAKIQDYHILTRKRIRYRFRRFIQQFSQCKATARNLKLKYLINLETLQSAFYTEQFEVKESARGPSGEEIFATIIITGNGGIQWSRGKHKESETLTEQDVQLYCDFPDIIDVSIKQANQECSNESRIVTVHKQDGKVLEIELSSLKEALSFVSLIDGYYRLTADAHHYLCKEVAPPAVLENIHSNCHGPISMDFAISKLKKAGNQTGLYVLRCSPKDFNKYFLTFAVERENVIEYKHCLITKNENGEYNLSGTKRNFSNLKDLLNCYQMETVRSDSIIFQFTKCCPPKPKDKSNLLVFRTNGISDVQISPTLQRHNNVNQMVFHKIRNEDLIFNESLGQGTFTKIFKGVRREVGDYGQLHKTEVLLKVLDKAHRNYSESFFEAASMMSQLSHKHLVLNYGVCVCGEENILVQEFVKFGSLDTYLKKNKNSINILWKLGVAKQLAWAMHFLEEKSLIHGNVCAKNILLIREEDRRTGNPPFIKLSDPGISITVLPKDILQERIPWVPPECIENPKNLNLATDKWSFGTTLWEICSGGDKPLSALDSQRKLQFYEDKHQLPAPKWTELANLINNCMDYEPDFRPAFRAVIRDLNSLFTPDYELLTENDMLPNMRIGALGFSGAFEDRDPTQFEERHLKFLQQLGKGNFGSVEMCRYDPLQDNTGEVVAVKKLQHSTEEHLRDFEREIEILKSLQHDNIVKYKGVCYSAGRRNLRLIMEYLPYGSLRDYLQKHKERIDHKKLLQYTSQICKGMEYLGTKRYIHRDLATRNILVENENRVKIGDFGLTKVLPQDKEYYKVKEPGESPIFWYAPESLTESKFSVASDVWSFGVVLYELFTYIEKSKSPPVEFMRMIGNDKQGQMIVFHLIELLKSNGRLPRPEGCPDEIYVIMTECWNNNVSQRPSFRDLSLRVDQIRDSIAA

| inhibition at 0.01 µM ([3]; at 10 nM, read-out: inhibition rate JAK3) [%] | inhibition at 0.1 µM ([3]; at 100 nM, read-out: inhibition rate JAK3) [%] | IC50 [3] [nM] | inhibition at 0.01 µM [4] [%] | inhibition at 0.1 µM [4] [%] | EC50 [5] [nM] | solubility at 1 h ([6]; simulated gastric fluid, diluted hydrochloric acid solution A (pH-1.5), room temperature, 1 hour) [µg/mL] | solubility ([6]; ultrapure water (pH-6), room temperature overnight) [µg/mL] | EC50 [7] [nM] | SMILES | inhibition at 0.01 µM [1] [%] | IC50 [2] [nM] |
| --- | --- | --- | --- | --- | --- | --- | --- | --- | --- | --- | --- |
| – | – | – | – | – | – | – | – | – | C=CC(=O)Nc1cccc(Nc2nc(Nc3ccc4c(c3)OCCN(C)CCOCCO4)ncc2Cl)c1 [Example 56, N-(3-((5-chloro-2-((7-methyl-2,3,6,7,8,9-hexahydro-5H-benzo[b][1,4,7]trioxa[10]azacyclododecan-12-yl)amino)pyrimidin-4-yl)amino)phenyl)acrylamide] | > 80 | < 50 |
| 40 to 79 | > 80 | < 50 | 40 to 79 | > 80 | 50 to 500 | – | – | – | CN1CCOc2ccc(Nc3nc(-c4cnn(C(CC#N)C5CCCC5)c4)c4cc[nH]c4n3)cc2OCC1 (centres unmarked) [Example 27] | – | – |
| – | – | – | – | – | – | > 3730 | 886 (≈ 1690 µM) | 50 to 500 | C=CC(=O)Nc1cccc(Nc2nc(Nc3ccc4c(c3)OCCOCCN(C)CCO4)ncc2Cl)c1 [Example 54, N-(3-((5-chloro-2-((7-methyl-2,3,6,7,8,9-hexahydro-5H-benzo[b][1,4,7]trioxa[10]azacyclododecan-13-yl)amino)pyrimidin-4-yl)amino)phenyl)acrylamide] | > 80 | < 50 |
| – | – | < 50 | > 80 | > 80 | 50 to 500 | – | – | – | CCS(=O)(=O)N1CC(CC#N)(n2cc(-c3nc(Nc4ccc5c(c4)OCCN(C)CCO5)nc4[nH]ccc34)cn2)C1 [Example 28] | – | – |
